Laboratory results published in ChEMBL document CHEMBL1125993, “The function of S1 subsite pocket of carboxypeptidase A” (Bioorg Med Chem Lett, 1991).

Biological target: T1, Carboxypeptidase A1 (Bos taurus, UniProt P00730)
T1 sequence (P00730 whole entry): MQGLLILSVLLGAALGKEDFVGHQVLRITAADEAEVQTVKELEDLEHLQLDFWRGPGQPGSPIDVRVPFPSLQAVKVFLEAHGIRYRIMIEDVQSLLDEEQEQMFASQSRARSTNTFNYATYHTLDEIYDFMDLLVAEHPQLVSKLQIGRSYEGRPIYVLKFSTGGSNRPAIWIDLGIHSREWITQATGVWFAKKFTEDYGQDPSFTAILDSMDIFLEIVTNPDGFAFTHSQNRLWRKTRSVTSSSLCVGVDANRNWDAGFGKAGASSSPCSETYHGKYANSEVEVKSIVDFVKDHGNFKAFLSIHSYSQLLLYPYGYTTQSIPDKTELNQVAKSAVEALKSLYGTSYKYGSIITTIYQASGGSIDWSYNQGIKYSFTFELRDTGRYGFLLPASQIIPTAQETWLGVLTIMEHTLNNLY
Assay: Compound was evaluated for binding affinity against carboxypeptidase A (CPA), expressed as inhibitory constant (Ki)

Compound | Ki [nM]
O=C(O)C(CS)Cc1ccc(Cl)cc1 (centres undefined) | 160
CCC(c1ccccc1)C(CS)C(=O)O (centres undefined) | 1500
CC(c1ccccc1)C(CS)C(=O)O (centres undefined) | 105
O=C(O)C(CS)Cc1ccc(Br)cc1 (centres undefined) | 150
